Key:
[1] = tested on: etiolated eto1-4 seedlings; experiment: Triple response phenotype / hypocotyl length of etiolated eto1-4 seedlings; type: in vivo, Arabidopsis thaliana; conditions: 10 μM; etiolated eto1-4; FIG. 3
Description: All mutants and transgenic plants were derived from the wild-type Arabidopsis thaliana Columbia ecotype (Col-0) and cultivated under a long-day condition (16-h light/8-h dark at 22° C.) under exemplary e light (100-150 μE m^−2 s^−1). A reporter construct, 5×EBS::LUC (a generous gift from Drs. Hai Li and Anna N. Stepanova, Salk Institute, USA), containing 5 copies of EIN3 binding sequence (EBS) fused with luciferase gene (LUC) was transformed to eto1-4 and subsequently used for screening compounds of a chemical library. Ethylene mutants eto1-4, eto2-1, ctr1-1 and the EIN3 overexpression line (35S::EIN3) were described previously (Solano, et al. (1998) Genes Dev 12, 3703-3714). Seeds were sterilized with 30% bleach for 6 min and sown in half-strength Murashige and Skoog (0.5×MS) medium supplemented with 0.8% agar and stratified in the dark at 4° C. for 3-4 days before germination. For analysis of the triple response phenotype, stratified seeds were grown in the dark at 22° C. for 3 days before scoring the phenotype.
A DIVERSet library (ChemBridge Inc.) containing 10,000 small molecules (in DMSO) was used for chemical screening. Three rounds of chemical screenings were carried out in 0.5×MS agar medium containing individual chemicals in each well of 96- and 24-well micro-titer plates. The initial screening was performed by sowing 10 to 15 seeds in the wells of micro-titer plates containing small molecules at 50 μM to score the long-hypocotyl phenotype. For the second and third screenings, we used 25 μM of small molecules selected from the first round of screening to score and confirm the phenotype. The seedling phenotype was scored by use of a digital camera attached to a Zeiss stereomicroscope (SteREO V8), and quantitation of hypocotyl length was performed by use of NIH Image J software. AVG and silver thiosulfate (STS, by mixing silver nitrate and sodium thiosulfate at a 1:4 molar ratio immediately before use) were obtained from Sigma and used as controls to suppress ethylene biosynthesis and perception, respectively. Agar medium was supplemented with 1-aminocyclopropane-1-carboxylic acid (10 μM, Merck) to induce the triple response in etiolated seedlings.
Shortened hypocotyls in etiolated seedlings is one of the triple response phenotypes (Guzman, et al. (1990) Plant Cell 2, 513-523; Wang, et al. (2004) Nature 428, 945-950). Two chemical compounds negating ethylene response, AVG and STS, were included as a control for comparison.

[2] = tested on: 5×EBS::LUC reporter (EIN3 binding sequence) in eto1-4; experiment: Luciferase activity of 5×EBS::LUC reporter in eto1-4 seedlings; type: in vivo, Arabidopsis thaliana; conditions: 10 μM
Description: For live imaging of luciferase activity, plants were first grown in the dark at 22° C. for 3 days, then under exemplary e light for 3 more days before the luciference of seedlings was imaged. Six-day-old seedlings were sprayed with luciferin (2 μM, Biosynth International Inc.) and kept in the dark for 5 min before collecting images by the Xenogen IVIS System (Caliper Life Sciences, Inc.). For quantitative assay of luciferase activity, the etiolated seedlings mentioned above were transferred to exemplary e micro-titer plates (Packard Optiplate-96, Perkin Elmer Inc.) for an additional 3 days under exemplary e light in 0.5×MS solution. The luciferase activity of seedlings was quantitated by use of a microplate reader (CHAMELEON, Hidex Inc.) in the presence of 2 μM luciferin.
To confirm the suppression of the eto1-4 phenotype resulting from disruption of the ethylene response, the following assays were performed. First, luciferase activity was analyzed with a transgenic reporter line harboring 5 copies of a synthetic promoter fusion with a luciferase gene (LUC), 5×EBS::LUC, in the eto1-4 background.

Compound	ranking in both hypocotyl length and ethylene level assays [1]	luciferase activity of 5×EBS::LUC in eto1-4 [2]
CC1(C)CC(=O)c2cnc(Nc3ccccc3)nc2C1 [Compound 9028]	most effective	
CC1CC(=O)c2cnc(Nc3ccccc3)nc2C1 (centres unmarked) [Compound 2305]	most effective	
silver thiosulfate [STS]		suppressed
CCCCNc1ncc2c(n1)CC(c1ccccc1)CC2=O (centres unmarked) [Compound 2616]	most effective	
O=C1CC(c2ccccc2Cl)Cc2nc(NC3CCCC3)ncc21 (centres unmarked) [Compound 8107]	most effective	
